Experimental data taken from the supplement of paper PMC11451515.

Tested on: SEM cells
Experiment: cell viability relative to DMSO control; higher = less cytotoxic
Details: 48 h
In short: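 Library compounds in DMSO were pin-dosed into 1536-well plates (5 μl) holding NOMO1 or SEM (500 cells/well) or P12-Ichikawa (1000 cells/well) leukemia cells, across an 11-point threefold series of 47 μM to 0.79 nM. Each cell line had been adapted for at least four passages in each medium. CellTiter-Glo One luminescence was read after 48 h at 37°C. Viability is the per-plate percentage relative to DMSO wells, with cell-free wells as background.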

[1] = HPLM + 10% dialyzed FBS, 0.000781 µM
[2] = HPLM + 10% dialyzed FBS, 0.00234 µM
[3] = HPLM + 10% dialyzed FBS, 0.00702 µM
[4] = HPLM + 10% dialyzed FBS, 0.0211 µM
[5] = HPLM + 10% dialyzed FBS, 0.0632 µM
[6] = HPLM + 10% dialyzed FBS, 0.19 µM
[7] = HPLM + 10% dialyzed FBS, 0.569 µM
[8] = HPLM + 10% dialyzed FBS, 1.71 µM
[9] = HPLM + 10% dialyzed FBS, 5.12 µM
[10] = HPLM + 10% dialyzed FBS, 15.4 µM
[11] = HPLM + 10% dialyzed FBS, 46.1 µM
[12] = RPMI 5 mM glucose + 10% FBS, 0.000781 µM
[13] = RPMI 5 mM glucose + 10% FBS, 0.00234 µM
[14] = RPMI 5 mM glucose + 10% FBS, 0.00702 µM
[15] = RPMI 5 mM glucose + 10% FBS, 0.0211 µM
[16] = RPMI 5 mM glucose + 10% FBS, 0.0632 µM
[17] = RPMI 5 mM glucose + 10% FBS, 0.19 µM
[18] = RPMI 5 mM glucose + 10% FBS, 0.569 µM
[19] = RPMI 5 mM glucose + 10% FBS, 1.71 µM
[20] = RPMI 5 mM glucose + 10% FBS, 5.12 µM
[21] = RPMI 5 mM glucose + 10% FBS, 15.4 µM
[22] = RPMI 5 mM glucose + 10% FBS, 46.1 µM
[23] = RPMI 5 mM glucose + 10% dialyzed FBS, 0.000781 µM
[24] = RPMI 5 mM glucose + 10% dialyzed FBS, 0.00234 µM
[25] = RPMI 5 mM glucose + 10% dialyzed FBS, 0.00702 µM
[26] = RPMI 5 mM glucose + 10% dialyzed FBS, 0.0211 µM
[27] = RPMI 5 mM glucose + 10% dialyzed FBS, 0.0632 µM
[28] = RPMI 5 mM glucose + 10% dialyzed FBS, 0.19 µM
[29] = RPMI 5 mM glucose + 10% dialyzed FBS, 0.569 µM
[30] = RPMI 5 mM glucose + 10% dialyzed FBS, 1.71 µM
[31] = RPMI 5 mM glucose + 10% dialyzed FBS, 5.12 µM
[32] = RPMI 5 mM glucose + 10% dialyzed FBS, 15.4 µM
[33] = RPMI 5 mM glucose + 10% dialyzed FBS, 46.1 µM

Structure (SMILES)	cell viability [1] [%]	cell viability [2] [%]	cell viability [3] [%]	cell viability [4] [%]	cell viability [5] [%]	cell viability [6] [%]	cell viability [7] [%]	cell viability [8] [%]	cell viability [9] [%]	cell viability [10] [%]	cell viability [11] [%]	cell viability [12] [%]	cell viability [13] [%]	cell viability [14] [%]	cell viability [15] [%]	cell viability [16] [%]	cell viability [17] [%]	cell viability [18] [%]	cell viability [19] [%]	cell viability [20] [%]	cell viability [21] [%]	cell viability [22] [%]	cell viability [23] [%]	cell viability [24] [%]	cell viability [25] [%]	cell viability [26] [%]	cell viability [27] [%]	cell viability [28] [%]	cell viability [29] [%]	cell viability [30] [%]	cell viability [31] [%]	cell viability [32] [%]	cell viability [33] [%]
Cn1cnc(-c2cc3nccc(Oc4ccc(NC(=S)NC(=O)Cc5ccccc5)cc4F)c3s2)c1	53.6	82.3	67.1	57.5	46	46.9	43.9	30.5	31.2	32.4	12.8	82.5	94.7	85.6	68.4	53.7	66.1	46.2	38.2	30.5	24.8	2.88	68.9	63.1	70	43.8	35.3	36	35.3	25.4	24.7	20.1	4.88
O=C(NCCO[N+](=O)[O-])c1cccnc1	99.3	64.4	107	114	105	97.1	101	98.7	108	105	115	100	92.8	112	111	112	114	96.1	102	112	121	108	107	89.6	112	109	97.6	111	96.6	105	110	111	110
COc1ccc(C(=O)CC(=O)c2ccc(C(C)(C)C)cc2)cc1	70.8	73.2	75.9	66.4	69.1	78.2	75.8	76.1	80.8	93.5	68.3	100	94.4	101	93	99	88	98.5	95.1	110	106	89.9	91.7	96.1	101	105	100	104	117	92	111	90.8	115
NCCCC(O)(P(=O)(O)O)P(=O)(O)O.O.O.O.[Na+]	141	106	118	120	122	118	125	110	71	56.6	15.4	124	125	109	130	112	122	99.3	101	22.5	16.6	6.56	125	111	133	118	122	113	110	116	37.5	27.9	7.61
